Key:
[1] = single substance, value given in the literature; cited from earlier work
[2] = Solubility in solvents (2,5-dimethylisosorbide, water, polyols); conditions: temperature range 55° C. to 70° C.
[3] = Stability of vitamin C (model substance for mRNA) in the carrier system; format: physicochemical; conditions: more than 15 wt. % vitamin C, with panthenol, composition of Table 16

CCCCCCCCCCCCCCCCCC(=O)OC[C@H](COP(=O)([O-])OCC[N+](C)(C)C)OC(=O)CCCCCCCCCCCCCCCCC [DSPC, 1,2-distearoyl-sn-glycero-3-phosphocholine]
HLB [1]: 4.5

CC(C)CCC[C@@H](C)[C@H]1CC[C@H]2[C@@H]3CC=C4C[C@@H](O)CC[C@]4(C)[C@H]3CC[C@]12C [cholesterol]
solubility in 2,5-dimethylisosorbide [2]: dissolved in high concentrations

CC[C@H](/C=C/[C@@H](C)[C@H]1CC[C@H]2[C@@H]3CC=C4C[C@@H](O)CC[C@]4(C)[C@H]3CC[C@]12C)C(C)C [stigmasterol]
concentration completely dissolved in 2,5-dimethylisosorbide [2]: over 50%

O=C1O[C@H]([C@@H](O)CO)C(O)=C1O [vitamin C, ascorbic acid]
stability in the composition or carrier system [3]: high stability

— patent US20250134825A1, “METHOD FOR PRODUCING MEDICATIONS AND VACCINES” (MSLsolutions GmbH, priority 2022, published 2025)
